In patent US20250090875A9, “IMMUNOSTIMULATORY COMPOUNDS AND CONJUGATES” (Seagen Inc., priority 2021, published 2025):

Columns and labels:
CT26 tumors = format: in vivo
Excerpt: This example covers in vivo assessments of anti-tumor activity of ADCs with TLR7/8 agonists. An in vivo syngeneic system was used to assess the ability of the ADCs having TLR ⅞ agonists as the payload to induce immune responses and drive an anti-tumor immune response using a subcutaneous, heterotopic mouse colon carcinoma model (a CT26 system). Female Balb/c mice were implanted with 1×10^5 CT26 cells sub-cutaneously in the flank on day 0. When mean tumor size of 100 mm^3 (measured using the formula: Volume (mm^3)=0.5*Length*Width^2 where length is the longer dimension) was reached, the mice were randomized into treatment groups of 6 mice per group. Animals were then treated intraperitoneally with the indicated treatment every 7 days, for 3 doses total. Stock concentrations of the ADCs were diluted to the appropriate concentration and injected into animals in 100 μL volumes. Tumor length and width and mouse weights were measured throughout the study and tumor volume was calculated using the formula above. Animals were followed until tumor volume reached 1000 mm^3, when animals were then euthanized.

MC38 tumors = assay: MC38 colon tumor model in C57BL/6 mice; format: in vivo, mouse; settings: ADC, carboxylic acid vs methyl ester payload, FIG. 12
Procedure: The activity of several conjugated TLR7/8 molecules in both methyl ester and carboxylic acid forms were also assessed in another colon tumor model, MC38. Results of this analysis are summarized in FIG. 12, which the top panel summarizing tumor volume and the bottom panel providing percent survival across 9 treatment groups. […] However, the increase in anti-tumor activity of the carboxylic acid version of the ADC was much more pronounced in this model for the S18a (methyl ester) or S18b (carboxylic acid) TLR7/8 agonist.
To assess if the small molecule and conjugated agonist are specific for the toll like 7 and/or 8 receptors, various small molecules and ADCs were tested on TLR7 receptor knockout animals. As TLR8 is normally nonfunctional in mice, in TLR7−/− mice there is a total loss of ability to respond to compounds that work through these receptors. To assess whether compounds are TLR7/8 specific, MC38 tumors were implanted into either wild type C57B1/6 mice or cognate TLR7−/− mice. When tumors reached ˜50 mm3 mice animals were treated q7dx3 with vehicle (PBS), 1 mg/kg of the free small molecule S18a, the isotype/non-targeted ADC with cmpd 9 or with an immune cell targeted version of the cmpd 9 IDC.

primary human PBMCs = assay: Cytokine induction in primary human PBMCs by small molecule TLR7/8 agonists (Luminex); format: cell-based; settings: free drug; for IFNα, IL1β, MIP1β, TNFα induction, C7 carboxylic acid vs parent C7 methyl ester: FIG. 3; for MIP1β and TNFα responses: FIG. 4, compared with Resiquimod or methyl ester counterpart
Procedure: This example covers dose dependent human immune cell activation by small molecule TLR7/8 agonists. Primary human PBMCs were isolated from peripheral whole blood from human donors and were subjected to treatment with increasing concentrations of the agonists diluted in PBS. Cell culture supernatants were harvested 24 h after treatment and analyzed for induction of cytokines via multiplex ELISAs (Luminex).
Several small molecule TLR7/8 agonists were assessed for their ability to activate human immune cells in a dose dependent manner. Primary human PBMCs were isolated from peripheral whole blood from human donors and were subjected to treatment with increasing concentrations of the agonists diluted in PBS. 24 h after treatment cell culture supernatants were harvested and analyzed for induction of cytokines via multiplex ELISAs (Luminex).

human immune cells = assay: Cytokine induction in human immune cells by TLR7/8 agonist-antibody conjugates (Luminex); format: cell-based; settings: ADC with immune-targeting antibody, FIGS. 6, 7, 8
Procedure: Cells were stimulated with the various TLR7/8 agonist-antibody conjugates at different concentrations, and resulting supernatants were harvested and analyzed using a multiplex analyte kit (Luminex).
Immune cells were treated with 5 μg/mL of an immune-targeting antibody, TLR agonist compounds, and antibody conjugated with different TLR agonist compounds (to thereby form ADCs with average drug:antibody ratios of about 8). FIG. 6 summarizes MIP1β (left panel) and TNFα (right panel) responses generated by untreated immune cells, a TLR agonist coupled to a non-targeting antibody (‘Non-targeted’), and TLR agonist compounds conjugated with immune-targeted antibodies (‘targeted cmpd’ 1-7). […] Targeted compounds 2, 4, 5, and 7 correspond to C7 carboxymethylated imidazoquinoline compounds coupled to immunostimulatory antibodies by cleavable linkers. Targeted compounds 3 and 6 correspond to C7 carboxylated imidazoquinoline compounds coupled to immunostimulatory antibodies by cleavable linkers. FIG. 7 provides dose-dependent IL12p40 (left panel) and IL1β (right panel) responses generated with non-targeted (i.e., coupled to an isotype antibody) and immune targeting antibody conjugated compounds, with ‘cmpd 9’ corresponding to a C7 carboxylated imidazoquinoline compound and ‘cmpo10’ corresponding to its C7 carboxymethyl analogue. FIG. 8 provides dose-dependent interleukin 6 (IL6, left panel) and TNFα (right panel) responses with ADCs comprising immune cell targeting antibodies coupled to either C7 carboxylated (cmpd 3, 8, 9) or C7 carboxymethylated (cmpd 4, 7, 10) imidazoquinoline compounds.
In order to ascertain whether the difference in activity of the N1 vs. C4 linked conjugates seen in the Renca model was due to variable potency, a dose range experiment was performed. The N1 and C4 linked targeted (ADC) and non-targeted conjugates were administered in a wide dose range (0.001 to 10 μg/mL) to exogenously derived human immune cells. […] Supernatants were harvested and analyzed using a multiplex analyte kit (Luminex).

[1] = SEC analysis of ADC aggregation (high molecular weight species) in plasma; format: physicochemical; settings: ADC incubated with human or mouse plasma, FIG. 9
Procedure: Method I: Size-exclusion chromatography (SEC) was performed with a Waters ACQUITY UPLC system and an Acquity UPLC Protein BEH SEC Column, (200 Å, 1.7 μm, 4.6×150 mm, PN: 186005225). The mobile phase used was 7.5% isopropanol in 92.5% aqueous (25 mM sodium phosphate, 350 mM NaCl, pH 6.8), v/v. Elution was performed isocratically at a flow rate of 0.4 mL/min at ambient temperature.
To determine if any of these differences in activity potentially resulted from increases in aggregation as a subsequent result of changes in charge, SEC analysis was performed. ADCs containing either S18a (methyl ester) or S18b (carboxylic acid) were incubated with both human or mouse plasma and assessed for the formation of high molecular weight species (HMW) over time.

Renca tumors = assay: Renca kidney carcinoma model in Balb/c mice; format: in vivo, mouse; settings: for loss of potency, C4-linked vs N1-linked conjugate: dose increase of C4-linked conjugate needed to match 2 mg/kg N1-linked conjugate
Procedure: The difference in anti-tumor activity of the S18a and S18b conjugates was also assessed in the Renca kidney model. In this model, mice bearing Renca tumors were treated q7dx3 when tumors reached ˜100 mm^3 as indicated, and followed for mean group tumor growth (FIG. 14, top) and survival (FIG. 14, bottom) over time.
This example covers cancer treatment with EphA2 targeted TLR agonists. […] Balb/c mice were implanted with Renca tumor cells and when cells reached 100 mm^3 they were treated Q7dx3 treatments with 2.4 mg/kg of the indicated IDC, either non targeting isotype or an EphA2 targeting mAb.

plasma cytokines [2] = assay: Systemic plasma cytokine induction in non-tumor bearing Balb/c mice; format: in vivo, mouse
plasma cytokines [3] = assay: Systemic cytokine response in CT26-tumor bearing mice; format: in vivo, mouse
Procedure: In addition to analyzing this response in non-tumor bearing animals simply on systemic immune activation, the C4/N1-linked TLR7/8 drug antibody conjugates were also administered to CT26-tumor bearing animals to determine how the linkage site affects cytokine response and anti-tumor response. The results are shown in FIG. 17, which provides MIP1b (top panel) and TNFα (bottom panel) responses generated with N1-(cmpd 9) and C4-(cmpd 11) linked compounds conjugated to targeting and non-targeting antibodies, as well as for untreated cells. […] This was true for targeted and non-targeted control conjugates.

[4] = tumor/immune targeted mAb, 2 mg/kg every 7 days, 3 doses, FIG. 38

## CCCCc1nc2c(N)nc3cc(C(=O)O)ccc3c2n1Cc1ccc(CNC(=O)OCc2ccc(O[C@H]3O[C@H](CO)[C@@H](O)[C@H](O)[C@@H]3O)c(NC(=O)CCNC(=O)[C@H](CCCCNC(=O)CCOCCOCCOCCOCCOCCOCCOCCOCCOCCOCCOCCOC)NC(=O)CCN3C(=O)C=CC3=O)c2)cc1 [Compound 3, 4-amino-2-butyl-1-(4-(((((3-((S)-44-(3-(2,5-dioxo-2,5-dihydro-1H-pyrrol-1-yl)propanamido)-38,45-dioxo-2,5,8,11,14,17,20,23,26,29,32,35-dodecaoxa-39,46-diazanonatetracontan-49-amido)-4-(((2R,3S,4S,5S,6R)-3,4,5-trihydroxy-6-(hydroxymethyl)tetrahydro-2H-pyran-2-yl)oxy)benzyl)oxy)carbonyl)amino)methyl)benzyl)-1H-imidazo[4,5-c]quinoline-7-carboxylic acid]
CT26 tumors; targeted ADC, intraperitoneal, every 7 days, 3 doses
  tumor growth delay and survival: profound tumor growth delay
MC38 tumors
  tumor growth delay and survival: slight increased survival advantage

## CCCCc1nc2c(N)nc3cc(C(=O)O)ccc3c2n1Cc1ccc(CN)cc1 [S8b, 4-amino-1-(4-(aminomethyl)benzyl)-2-butyl-1H-imidazo[4,5-c]quinoline-7-carboxylic acid]
Primary human PBMCs
  IFNα, IL1β, MIP1β, TNFα induction, C7 carboxylic acid vs parent C7 methyl ester: markedly lower potency and activity than its corresponding parent methyl ester compound
  MIP1β and TNFα responses: lower activities than their methyl ester counterparts
Human immune cells
  potency at activating immune cells vs methyl ester analogues: just as, if not more potent at activating immune cells than their methyl ester analogues

## CCCCc1nc2c(N)nc3cc(C(=O)O)ccc3c2n1CCN [S11b]
Primary human PBMCs
  IFNα, IL1β, MIP1β, TNFα induction, C7 carboxylic acid vs parent C7 methyl ester: markedly lower potency and activity than its corresponding parent methyl ester compound
  MIP1β and TNFα responses: lower activities than their methyl ester counterparts
Human immune cells
  potency at activating immune cells vs methyl ester analogues: just as, if not more potent at activating immune cells than their methyl ester analogues

## CCCCc1nc2c(N)nc3cc(C(=O)O)ccc3c2n1Cc1ccc(CN(C)C)cc1 [S18b]
Human immune cells
  potency at activating immune cells vs methyl ester analogues: just as, if not more potent at activating immune cells than their methyl ester analogues
[1]
  aggregation (formation of high molecular weight species over time): no significant difference in the amounts of aggregation
MC38 tumors
  tumor growth delay and survival: distinct tumor growth delay and overall survival benefit
Renca tumors; ADC, q7dx3 from ~100 mm^3, FIG. 14
  tumor growth and survival: very good tumor growth delay and superior overall survival advantage

## CCCCc1nc2c(NC(=O)OCc3ccc(O[C@H]4O[C@H](CO)[C@@H](O)[C@H](O)[C@@H]4O)c(NC(=O)CCNC(=O)[C@H](CCCCNC(=O)CCOCCOCCOCCOCCOCCOCCOCCOCCOCCOCCOCCOC)NC(=O)CCN4C(=O)C=CC4=O)c3)nc3cc(C(=O)O)ccc3c2n1Cc1ccc(CN(C)C)cc1 [cmpd 11, 2-butyl-1-(4-((dimethylamino)methyl)benzyl)-4-((((3-((S)-44-(3-(2,5-dioxo-2,5-dihydro-1H-pyrrol-1-yl)propanamido)-38,45-dioxo-2,5,8,11,14,17,20,23,26,29,32,35-dodecaoxa-39,46-diazanonatetracontan-49-amido)-4-(((2R,3 S,4S,5 S,6R)-3,4,5-trihydroxy-6-(hydroxymethyl)tetrahydro-2H-pyran-2-yl)oxy)benzyl)oxy)carbonyl)amino)-1H-imidazo[4,5-c]quinoline-7-carboxylic acid]
CT26 tumors; EphA2 targeting mAb
  animals reaching complete tumor cures: 50%
CT26 tumors; EphA2 targeting mAb or isotype, FIGS. 35, 36
  anti-tumor activity and tumor growth delay: all animals benefiting from tumor growth delay
CT26 tumors; [4]
  animals fully cured: no cures
  median tumor volume (tumor growth delay): advantage with the TLR7/8 containing IDC vs the naked tumor/immune targeted mAb in terms of tumor growth delay
Renca tumors; EphA2 targeting mAb or isotype, Q7dx3, 2-2.4 mg/kg
  tumor growth: substantial tumor growth delayed noted for several of the animals
Renca tumors
  loss of potency, C4-linked vs N1-linked conjugate: ~4 ×
Renca tumors; listed as Compound 11
  loss of potency, C4-linked vs N1-linked conjugate: approximately 4 ×
Plasma cytokines [2]; immune-targeted ADC, 2 mg/kg intraperitoneal
  IL6 and TNFα levels, C4 vs N1 linkage: no changes in IL6 or TNFα levels
Plasma cytokines [2]; immune-targeted ADC, 2 mg/kg intraperitoneal, plasma 3/6/24 h
  reduction of systemic cytokine induction (MCP1, IP10, MIP1a, MIP1b, RANTES), C4 vs N1 linkage: 4.8 -fold
Plasma cytokines [2]; non-targeting ADC, FIG. 16
  systemic cytokines (MIP1β, TNFα), C4 vs N1 linkage: greatly diminished systemic cytokines and non-specific uptake
Plasma cytokines [3]; targeted and non-targeted control conjugates, FIG. 17
  systemic activation (majority of cytokines), C4 vs N1 linkage: reduced systemic activation
Plasma cytokines [3]; targeted antibody conjugate
  TNFα and MIP1β, C4 vs N1 linkage: equivalent for TNFα but showed benefit for MIP1β
